Measured values taken from ChEMBL document CHEMBL5620405, “A platform for the rapid synthesis of molecular glues (Rapid-Glue) under miniaturized conditions for direct biological screening” (Eur J Med Chem, 2023).
The source made the active and inactive calls. The rule behind the calls is not given here.

Key:
[1] = system: MOLT-4; assay: Antiproliferative activity against human MOLT-4 cells assessed as cell viability at 1 uM measured after 72 hrs by Alamar blue assay; format: functional; settings: read-out: Activity
[2] = system: RS4-11; assay: Antiproliferative activity against human RS4-11 cells assessed as cell viability at 1 uM measured after 72 hrs by Alamar blue assay; format: functional; settings: read-out: Activity
[3] = system: RS4-11; assay: Antiproliferative activity against human RS4-11 cells assessed as reduction in cell viability measured after 72 hrs by Alamar blue assay; format: functional, cell-based; settings: RS4-11, 72 h
[4] = target: T1, Protein cereblon/Eukaryotic peptide chain release factor GTP-binding subunit ERF3A (Homo sapiens, UniProt Q96SW2+P15170); assay: Molecular glue activity at CRBN/GSPT1 in human RS4-11 cells assessed as induction of GSPT1 degradation by western blot analysis; format: cell-based
Target sequence in this assay (Q96SW2 whole entry): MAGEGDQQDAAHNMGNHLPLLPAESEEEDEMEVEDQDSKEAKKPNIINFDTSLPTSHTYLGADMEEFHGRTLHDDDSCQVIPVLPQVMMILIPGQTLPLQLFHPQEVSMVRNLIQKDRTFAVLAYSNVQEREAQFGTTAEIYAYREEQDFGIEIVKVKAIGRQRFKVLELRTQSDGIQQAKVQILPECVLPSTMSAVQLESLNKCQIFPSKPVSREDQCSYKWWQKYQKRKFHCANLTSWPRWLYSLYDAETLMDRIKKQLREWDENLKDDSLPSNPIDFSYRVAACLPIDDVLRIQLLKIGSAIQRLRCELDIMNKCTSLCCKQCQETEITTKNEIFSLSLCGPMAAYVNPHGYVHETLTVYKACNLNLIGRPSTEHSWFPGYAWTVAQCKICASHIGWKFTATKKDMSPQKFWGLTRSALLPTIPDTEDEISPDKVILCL
Target sequence in this assay (P15170 whole entry): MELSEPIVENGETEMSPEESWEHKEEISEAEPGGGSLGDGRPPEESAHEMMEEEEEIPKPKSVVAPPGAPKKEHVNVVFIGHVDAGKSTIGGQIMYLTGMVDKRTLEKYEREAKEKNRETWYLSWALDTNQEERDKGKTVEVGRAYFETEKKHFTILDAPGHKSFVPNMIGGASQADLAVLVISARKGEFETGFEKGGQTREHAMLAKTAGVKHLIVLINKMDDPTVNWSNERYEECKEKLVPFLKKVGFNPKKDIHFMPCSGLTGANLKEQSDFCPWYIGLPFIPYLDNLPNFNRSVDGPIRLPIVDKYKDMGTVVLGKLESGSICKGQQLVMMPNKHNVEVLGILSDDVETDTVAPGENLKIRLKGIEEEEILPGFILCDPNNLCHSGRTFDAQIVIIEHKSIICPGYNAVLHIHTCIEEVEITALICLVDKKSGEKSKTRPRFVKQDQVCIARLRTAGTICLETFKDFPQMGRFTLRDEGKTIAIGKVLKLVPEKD

[5] = system: MOLT-4; assay: Antiproliferative activity against human MOLT-4 cells assessed as reduction in cell viability measured after 72 hrs by Alamar blue assay; format: functional, cell-based; settings: MOLT-4, 72 h
[6] = system: MM1.S; assay: Antiproliferative activity against human MM1.S cells assessed as reduction in cell viability measured after 72 hrs by Alamar blue assay; format: functional, cell-based
[7] = target: T1, Protein cereblon/Eukaryotic peptide chain release factor GTP-binding subunit ERF3A; assay: Molecular glue activity at CRBN/GSPT1 in human RS4-11 cells assessed as induction of GSPT1 degradation at 0.1 uM measured after 24 hrs by western blot analysis; format: cell-based
Target sequence in this assay (P15170 whole entry, looked up): as the sequence (P15170 whole entry) above
Target sequence in this assay (Q96SW2 whole entry, looked up): as the sequence (Q96SW2 whole entry) above

[8] = target: T1, Protein cereblon/Eukaryotic peptide chain release factor GTP-binding subunit ERF3A; assay: Molecular glue activity at CRBN/GSPT1 in human RS4-11 cells assessed as induction of GSPT1 degradation at 1 uM measured after 4 hrs by western blot analysis; format: cell-based
Target sequence in this assay (P15170 whole entry, looked up): as the sequence (P15170 whole entry) above
Target sequence in this assay (Q96SW2 whole entry, looked up): as the sequence (Q96SW2 whole entry) above

[9] = target: T1, Protein cereblon/Eukaryotic peptide chain release factor GTP-binding subunit ERF3A; assay: Molecular glue activity at CRBN/GSPT1 in human RS4-11 cells assessed as induction of GSPT1 degradation by measuring reduction in GSPT1 level measured for 6 hrs by western blot analysis; format: cell-based; design: scale not given: the % may be the effect or the level left
Target sequence in this assay (P15170 whole entry, looked up): as the sequence (P15170 whole entry) above
Target sequence in this assay (Q96SW2 whole entry, looked up): as the sequence (Q96SW2 whole entry) above

[10] = target: T1, Protein cereblon/Eukaryotic peptide chain release factor GTP-binding subunit ERF3A; assay: Molecular glue activity at CRBN/GSPT1 in human RS4-11 cells assessed as induction of GSPT1 degradation at 1 uM by western blot analysis; format: cell-based; settings: time 0.5-24 hrs, TDE = time-dependent effect
Target sequence in this assay (P15170 whole entry, looked up): as the sequence (P15170 whole entry) above
Target sequence in this assay (Q96SW2 whole entry, looked up): as the sequence (Q96SW2 whole entry) above

[11] = system: RS4-11; assay: Antiproliferative activity against human RS4-11 cells assessed as cell viability at 0.1 uM measured after 72 hrs by Alamar blue assay; format: functional; settings: read-out: Activity
[12] = system: RS4-11; assay: Antiproliferative activity against human RS4-11 cells assessed as cell viability at 0.5 uM measured after 72 hrs by Alamar blue assay; format: functional; settings: read-out: Activity
[13] = target: T1, Protein cereblon/Eukaryotic peptide chain release factor GTP-binding subunit ERF3A; assay: Molecular glue activity at CRBN/GSPT1 in human RS4-11 cells assessed as downregulation of GSPT1 expression at 1 uM measured after 6 hrs by TMT-mass spectrometry; format: cell-based
Target sequence in this assay (P15170 whole entry, looked up): as the sequence (P15170 whole entry) above
Target sequence in this assay (Q96SW2 whole entry, looked up): as the sequence (Q96SW2 whole entry) above

[14] = target: T1, Protein cereblon/Eukaryotic peptide chain release factor GTP-binding subunit ERF3A; assay: Molecular glue activity at CRBN/GSPT1 in human RS4-11 cells assessed as induction of GSPT1 degradation measured after 12 hrs by western blot analysis; format: cell-based; settings: dose 0.0001-10 µM
Target sequence in this assay (P15170 whole entry, looked up): as the sequence (P15170 whole entry) above
Target sequence in this assay (Q96SW2 whole entry, looked up): as the sequence (Q96SW2 whole entry) above

IC50 [3] [nM] | DC50 [4] [nM] | IC50 [5] [nM] | IC50 [6] [nM] | SMILES | viability at 1 µM [1] [%] | viability at 1 µM [2] [%] | also measured
> 1000 | – | > 10000 | > 10000 | CN1CCN(c2ncc(/C=N/NC(=O)COc3ccccc3-c3cccc4c3CN(C3CCC(=O)N(C)C3=O)C4=O)s2)CC1 (centres undefined) | > 100 | 96 | –
> 10000 | – | > 10000 | > 10000 | Cc1nc2ccccn2c1/C=N/NC(=O)COc1ccccc1-c1cccc2c1CN(C1CCC(=O)N(C)C1=O)C2=O (centres undefined) | > 100 | 89 | –
> 1000 | – | > 1000 | > 10000 | CN1C(=O)CCC(N2Cc3c(cccc3-c3ccccc3OCC(=O)N/N=C/c3cn(S(=O)(=O)c4ccccc4)c4ccccc34)C2=O)C1=O (centres undefined) | > 100 | 97 | –
– | 166 | – | – | O=C(COc1ccccc1-c1cccc2c1CN(C1CCC(=O)NC1=O)C2=O)NCc1cn(S(=O)(=O)c2ccccc2)c2ccccc12 (centres undefined) | – | – | –
– | 168 | – | – | O=C(COc1ccccc1-c1cccc2c1CN(C1CCC(=O)NC1=O)C2=O)NCCc1cn(S(=O)(=O)c2ccccc2)c2ccccc12 (centres undefined) | – | – | –

Second part, the compound before the results:

SMILES | IC50 [3] [nM] | DC50 [4] [nM] | IC50 [5] [nM] | IC50 [6] [nM] | viability at 1 µM [1] [%] | viability at 1 µM [2] [%] | also measured
O=C(COc1ccc(-c2ccc3c(c2)CN(C2CCC(=O)NC2=O)C3=O)cc1)N/N=C/c1c(Cl)ccc(C(F)(F)F)c1Cl (centres undefined) | – | – | – | – | 74 | 47 | –
O=C1CCC(N2Cc3cc(CNC(=O)C(F)(F)c4ccc(Cl)cc4)ccc3C2=O)C(=O)N1 (centres undefined) | 0.1 | – | – | – | – | – | –
O=C(COc1ccccc1-c1cccc2c1CN(C1CCC(=O)NC1=O)C2=O)NCc1nn(Cc2ccccc2)c2ccccc12 (centres undefined) | – | 785 | – | – | – | – | –
O=C(COc1ccccc1-c1cccc2c1CN(C1CCC(=O)NC1=O)C2=O)N/N=C/c1cn(S(=O)(=O)c2ccccc2)c2ccccc12 (centres undefined) | 7 | 154 | 175 | 131 | 43 | 15 | Activity [7]: 100%; Activity [8]: 100%; Activity [9]: > 50%; Activity [10]: Tde; viability at 0.1 µM [11]: 52%; viability at 0.5 µM [12]: 5%; Activity [13]: Active; Activity [14]: Dose-Dependent Effect
Cc1nc2ccccn2c1/C=N/NC(=O)COc1ccccc1-c1cccc2c1CN(C1CCC(=O)NC1=O)C2=O (centres undefined) | 7 | – | > 10000 | > 10000 | 52 | 25 | viability at 0.1 µM [11]: 46%; viability at 0.5 µM [12]: 15%
O=C(COc1ccc(-c2ccc3c(c2)CN(C2CCC(=O)NC2=O)C3=O)cc1)N/N=C/c1c(C(F)(F)F)ccc(Cl)c1Cl (centres undefined) | – | – | – | – | 67 | 54 | –
CN1CCN(c2ncc(/C=N/NC(=O)COc3ccccc3-c3cccc4c3CN(C3CCC(=O)NC3=O)C4=O)s2)CC1 (centres undefined) | 71 | – | > 1000 | > 10000 | 66 | 24 | viability at 0.1 µM [11]: 56%; viability at 0.5 µM [12]: 23%
O=C(COc1ccccc1-c1cccc2c1CN(C1CCC(=O)NC1=O)C2=O)N/N=C/c1nn(Cc2ccccc2)c2ccccc12 (centres undefined) | 2 | 50 | 260 | 370 | 7 | 11 | Activity [7]: 100%; Activity [8]: 100%; Activity [9]: > 50%; Activity [10]: Tde; viability at 0.1 µM [11]: 86%; viability at 0.5 µM [12]: 6%; Activity [13]: Active; Activity [14]: Dose-Dependent Effect
CN1C(=O)CCC(N2Cc3cc(-c4ccc(OCC(=O)N/N=C/c5c(Cl)ccc(C(F)(F)F)c5Cl)cc4)ccc3C2=O)C1=O (centres undefined) | – | – | – | – | > 100 | > 100 | –
CN1C(=O)CCC(N2Cc3cc(-c4ccc(OCC(=O)N/N=C/c5c(C(F)(F)F)ccc(Cl)c5Cl)cc4)ccc3C2=O)C1=O (centres undefined) | – | – | – | – | > 100 | > 100 | –
CN1C(=O)CCC(N2Cc3c(cccc3-c3ccccc3OCC(=O)N/N=C/c3nn(Cc4ccccc4)c4ccccc34)C2=O)C1=O (centres undefined) | > 1000 | – | > 1000 | > 1000 | > 100 | 98 | –
